Assay results from patent US20140045205A1, “GLUTAMYL AMINOPEPTIDASE AS A MARKER OF RENAL DAMAGE” (UNIVERSIDAD DE GRANADA, priority 2010, published 2014).

Columns and labels:
[1] = rats, 8% NaCl in diet, 6 weeks
Method: (§2) On the one hand, 42 male Wistar rats of 250 g in weight from the animal house of the University of Valladolid were distributed in 6 groups (n=7) with the following treatments: Control, Salt (8% NaCl in the diet), Hypothyroid (methimazole, 300 mg/l in drinking water), Hypothyroid+Salt, Hyperthyroid (daily s.c. injection of thyroxine (T4) 200 μg.kg^−1.day^−1), and Hyperthyroid+Salt.

[2] = Proteinuria in rats (Bio-Rad DC Protein Assay kit, Lowry's method)
Method: as §2
(§3) At the end of the experiment, and after a 2-day period of adaptation to the metabolic cages, each animal was introduced in a metabolic cage during 24 hours. The dieresis was determined, and the urine was centrifuged for 10 min at 1,000 g, aliquoted and frozen at −80° C. until its use.
Proteinuria was determined using a commercial kit from Bio-Rad (DC Protein Assay kit) based on Lowry's method.

GluAp = assay: Urinary GluAp activity in rats, fluorometric analysis with glutamyl-β-naphthylamide; details: for GluAp urinary activity change: rats, 6 weeks treatment (8% NaCl in diet; methimazole 300 mg/l drinking water; T4 200 μg/kg/day s.c.), versus control group
Method: as §2, §3
The GluAp, AlaAp, AspAp and CysAp activities were determined in duplicate by a fluorometric analysis using glutamyl-, alanyl-, aspartyl- and cystinyl-β-naphthylamide as substrates, respectively.
The substrates had been previously dissolved in 1 ml of DMSO and stored at -20° C.
The quantity of β-naphthylamine released as a result of the aminopeptidase activities was measured fluorometrically at an emission wavelength of 412 nm with excitation at 345 nm, taking a measurement of the fluorescence after 60 minutes, after stopping the reaction with 90 μl of 0.1 M acetate buffer.
A blank was performed in duplicate for each sample. […] The fluorescence difference between both measurements was quantified using a standard curve of β-naphthylamine dissolved in water at the concentrations of 12.5, 25, 50, 100 and 200 nmol/ml 90 μl of the incubation solution corresponding to each enzyme without the substrate were added to 20 μl of this solution, they were incubated during 60 minutes at 37° C., and 90 μl of 0.1 M acetate buffer were added. It was verified that the presence of the substrate in the incubation solutions in no way modified the fluorescence of the standard. All measurements were made in duplicate, and the linearity of the fluorescence obtained in the curve range was verified (0-200 nmol/ml).
Both for the determinations of the samples and for the blanks, reaction blanks were performed containing 20 μl of distilled water, 90 μl of incubation solution with or without substrate, respectively, and 90 μl of sodium acetate.
The specific activity of each aminopeptidase was expressed as nanomoles of hydrolyzed substrate per minute and per mg of creatinine. The linearity of the fluorescence obtained was verified with respect to hydrolysis time and creatinine content in a same sample.

AspAp = assay: Urinary AspAp activity in rats, fluorometric analysis with aspartyl-β-naphthylamide; assay type: in vivo, Wistar rats
Method: (§1) All treatments were maintained during 6 weeks. […] The GluAp, […] […] A blank was performed in duplicate for each sample.

AlaAp = assay: Urinary AlaAp activity in rats, fluorometric analysis with alanyl-β-naphthylamide; assay type: in vivo, Wistar rats; details: for AlaAp urinary activity change: rats, 6 weeks treatment (8% NaCl in diet; methimazole 300 mg/l drinking water), versus control group
Method: as §1

CysAp = assay: Urinary CysAp activity in rats, fluorometric analysis with cystinyl-β-naphthylamide; assay type: in vivo, Wistar rats
Method: as §1

[3] = rats, 6 weeks treatment (8% NaCl in diet; methimazole 300 mg/l drinking water; T4 200 μg/kg/day s.c.), versus control group
[4] = 8% salt given simultaneously to hyperthyroid (T4) rats, 6 weeks, over the value of the hyperthyroid rats
[5] = methimazole 300 mg/l given to rats treated with 8% salt (Hypothyroid+salt), 6 weeks, in comparison with rats treated with salt
[6] = rats, 6 weeks treatment (methimazole 300 mg/l drinking water), versus control group

Row | Structure (SMILES) | plasma creatinine change [1] | proteinuria change ([2]; 8% salt given simultaneously to hyperthyroid (T4) rats, 6 weeks) | proteinuria change [2, 3] | rise in GluAp activity (GluAp; [4]) | GluAp urinary activity change (GluAp) | rise in AspAp activity (AspAp; [4]) | rise in AlaAp activity (AlaAp; [4]) | AlaAp urinary activity change (AlaAp) | rise in CysAp activity (CysAp; [4]) | GluAp activity change (GluAp; [5]) | AspAp urinary activity change (AspAp; [6]) | AlaAp activity change (AlaAp; [5]) | CysAp urinary activity change (CysAp; [6])
1 | [Cl-].[Na+] [Salt, NaCl] | not accompanied | great increase | not accompanied with proteinuria | more than tenfold | significant increase | around fivefold | more than tenfold | significant increase | around fivefold | – | – | – | –
2 | Cn1cc[nH]c1=S [methimazole, reference compound] | – | – | no modification | – | no modification | – | – | significantly decreased | – | decrease | no modification | decrease | no modification
